Tested on: rumen fluid from dairy cows
Assay: Rumen in vitro experiment with dairy cow rumen fluid
Settings: about 23 hours
Method: A similar experiment was carried out using rumen fluid from dairy cows fed a typical dairy cow diet of two parts corn silage and three parts dairy concentrate. Specifically, strained rumen fluid (10 ml) was obtained, from an animal fed two hours earlier, via cannula and was mixed with 10 ml of a nutrient broth comprising a 2:3 mix of corn silage and dairy concentrate. After adding a selected growth promotant, the mixture was incubated at 39° C. for about 23 hours, with oscillation.

Question: `CC[C@@H](C(=O)[C@@H](C)[C@@H](O)[C@H](C)CCc1ccc(C)c(O)c1C(=O)O)[C@H]1O[C@](CC)([C@H]2CC[C@](O)(CC)[C@H](C)O2)C[C@@H]1C` [Lasalocid] was tested. Which “% PR” value (0.5 ppm) did it give?
Answer: The value was 114% OF CONTROL.

Question: And the ACE (0.5 ppm)?
Answer: The ACE was 95% OF CONTROL.

Question: And the AMO (0.5 ppm)?
Answer: Its AMO is 93% OF CONTROL.

Question: What about the BUT (0.5 ppm) of the same compound?
Answer: Its BUT is 94% OF CONTROL.

Question: And the DLAC (0.5 ppm)?
Answer: Its DLAC is 0% OF CONTROL.

Question: What about the ETOH (0.5 ppm) of the same compound?
Answer: The ETOH was 0% OF CONTROL.

Question: What about the GLU (0.5 ppm) of the same compound?
Answer: Its GLU is 0% OF CONTROL.

Question: What about the IBU (0.5 ppm) of the same compound?
Answer: Its IBU is 119% OF CONTROL.

Question: What about the IVA (0.5 ppm) of the same compound?
Answer: Its IVA is 102% OF CONTROL.

Question: And the LLAC (0.5 ppm)?
Answer: The LLAC was 0% OF CONTROL.

Question: What about the LYS (0.5 ppm) of the same compound?
Answer: Its LYS is 106% OF CONTROL.

Question: And the NH--N (0.5 ppm)?
Answer: Its NH--N is 106% OF CONTROL.

Question: And the PRO (0.5 ppm)?
Answer: Its PRO is 112% OF CONTROL.

Question: And the TOTAL (0.5 ppm)?
Answer: The TOTAL was 99% OF CONTROL.

Question: What about the VAL (0.5 ppm) of the same compound?
Answer: Its VAL is 87% OF CONTROL.

Question: And the “% PR” value (5 ppm)?
Answer: Its value is 136% OF CONTROL.

Question: What about the ACE (5 ppm) of the same compound?
Answer: The ACE was 109% OF CONTROL.

Question: What about the AMO (5 ppm) of the same compound?
Answer: Its AMO is 198% OF CONTROL.

Question: What about the BUT (5 ppm) of the same compound?
Answer: Its BUT is 79% OF CONTROL.

Question: And the DLAC (5 ppm)?
Answer: Its DLAC is 0% OF CONTROL.

Question: What about the ETOH (5 ppm) of the same compound?
Answer: Its ETOH is 0% OF CONTROL.

Question: And the GLU (5 ppm)?
Answer: Its GLU is 0% OF CONTROL.

Question: What about the IBU (5 ppm) of the same compound?
Answer: The IBU was 164% OF CONTROL.

Question: What about the IVA (5 ppm) of the same compound?
Answer: Its IVA is 91% OF CONTROL.

Question: What about the LLAC (5 ppm) of the same compound?
Answer: Its LLAC is 0% OF CONTROL.

Question: What about the LYS (5 ppm) of the same compound?
Answer: The LYS was 130% OF CONTROL.

Question: What about the NH--N (5 ppm) of the same compound?
Answer: The NH--N was 131% OF CONTROL.

Question: What about the PRO (5 ppm) of the same compound?
Answer: Its PRO is 144% OF CONTROL.

Question: What about the TOTAL (5 ppm) of the same compound?
Answer: Its TOTAL is 106% OF CONTROL.

Question: And the VAL (5 ppm)?
Answer: Its VAL is 90% OF CONTROL.

Question: What about the “% PR” value (50 ppm) of the same compound?
Answer: The value was 186% OF CONTROL.

Question: And the ACE (50 ppm)?
Answer: The ACE was 65% OF CONTROL.

Question: And the AMO (50 ppm)?
Answer: Its AMO is 278% OF CONTROL.

Question: What about the BUT (50 ppm) of the same compound?
Answer: Its BUT is 62% OF CONTROL.

Question: What about the DLAC (50 ppm) of the same compound?
Answer: The DLAC was 0% OF CONTROL.

Question: And the ETOH (50 ppm)?
Answer: The ETOH was 0% OF CONTROL.

Question: And the GLU (50 ppm)?
Answer: The GLU was 0% OF CONTROL.

Question: And the IBU (50 ppm)?
Answer: The IBU was 51% OF CONTROL.

Question: And the IVA (50 ppm)?
Answer: Its IVA is 41% OF CONTROL.

Question: What about the LLAC (50 ppm) of the same compound?
Answer: Its LLAC is 0% OF CONTROL.

Question: And the LYS (50 ppm)?
Answer: The LYS was 150% OF CONTROL.

Question: What about the NH--N (50 ppm) of the same compound?
Answer: The NH--N was 78% OF CONTROL.

Question: What about the PRO (50 ppm) of the same compound?
Answer: The PRO was 151% OF CONTROL.

Question: And the TOTAL (50 ppm)?
Answer: Its TOTAL is 81% OF CONTROL.

Question: And the VAL (50 ppm)?
Answer: The VAL was 53% OF CONTROL.

Question: Which results are given for Avoparcin?
Answer: % PR (0.5 ppm): 101% OF CONTROL; ACE (0.5 ppm): 100% OF CONTROL; AMO (0.5 ppm): 79% OF CONTROL; BUT (0.5 ppm): 100% OF CONTROL; DLAC (0.5 ppm): 0% OF CONTROL; ETOH (0.5 ppm): 0% OF CONTROL; GLU (0.5 ppm): 0% OF CONTROL; IBU (0.5 ppm): 122% OF CONTROL; IVA (0.5 ppm): 101% OF CONTROL; LLAC (0.5 ppm): 0% OF CONTROL; LYS (0.5 ppm): 91% OF CONTROL; NH--N (0.5 ppm): 92% OF CONTROL; PRO (0.5 ppm): 102% OF CONTROL; TOTAL (0.5 ppm): 1200% OF CONTROL; VAL (0.5 ppm): 97% OF CONTROL; % PR (5 ppm): 113% OF CONTROL; ACE (5 ppm): 94% OF CONTROL; AMO (5 ppm): 107% OF CONTROL; BUT (5 ppm): 91% OF CONTROL; DLAC (5 ppm): 0% OF CONTROL; ETOH (5 ppm): 0% OF CONTROL; GLU (5 ppm): 0% OF CONTROL; IBU (5 ppm): 146% OF CONTROL; IVA (5 ppm): 115% OF CONTROL; LLAC (5 ppm): 0% OF CONTROL; LYS (5 ppm): 92% OF CONTROL; NH--N (5 ppm): 122% OF CONTROL; PRO (5 ppm): 112% OF CONTROL; TOTAL (5 ppm): 99% OF CONTROL; VAL (5 ppm): 103% OF CONTROL; % PR (50 ppm): 128% OF CONTROL; ACE (50 ppm): 108% OF CONTROL; AMO (50 ppm): 123% OF CONTROL; BUT (50 ppm): 88% OF CONTROL; DLAC (50 ppm): 0% OF CONTROL; ETOH (50 ppm): 0% OF CONTROL; GLU (50 ppm): 0% OF CONTROL; IBU (50 ppm): 116% OF CONTROL; IVA (50 ppm): 104% OF CONTROL; LLAC (50 ppm): 0% OF CONTROL; LYS (50 ppm): 88% OF CONTROL; NH--N (50 ppm): 148% OF CONTROL; PRO (50 ppm): 137% OF CONTROL; TOTAL (50 ppm): 107% OF CONTROL; VAL (50 ppm): 99% OF CONTROL

Question: What does the source list for Saloinomycin?
Answer: % PR (0.5 ppm): 126% OF CONTROL; ACE (0.5 ppm): 95% OF CONTROL; AMO (0.5 ppm): 117% OF CONTROL; BUT (0.5 ppm): 83% OF CONTROL; DLAC (0.5 ppm): 0% OF CONTROL; ETOH (0.5 ppm): 0% OF CONTROL; GLU (0.5 ppm): 0% OF CONTROL; IBU (0.5 ppm): 153% OF CONTROL; IVA (0.5 ppm): 110% OF CONTROL; LLAC (0.5 ppm): 0% OF CONTROL; LYS (0.5 ppm): 119% OF CONTROL; NH--N (0.5 ppm): 136% OF CONTROL; PRO (0.5 ppm): 124% OF CONTROL; TOTAL (0.5 ppm): 99% OF CONTROL; VAL (0.5 ppm): 94% OF CONTROL; % PR (5 ppm): 152% OF CONTROL; ACE (5 ppm): 99% OF CONTROL; AMO (5 ppm): 226% OF CONTROL; BUT (5 ppm): 66% OF CONTROL; DLAC (5 ppm): 0% OF CONTROL; ETOH (5 ppm): 0% OF CONTROL; GLU (5 ppm): 0% OF CONTROL; IBU (5 ppm): 108% OF CONTROL; IVA (5 ppm): 75% OF CONTROL; LLAC (5 ppm): 0% OF CONTROL; LYS (5 ppm): 117% OF CONTROL; NH--N (5 ppm): 116% OF CONTROL; PRO (5 ppm): 148% OF CONTROL; TOTAL (5 ppm): 98% OF CONTROL; VAL (5 ppm): 83% OF CONTROL; % PR (50 ppm): 188% OF CONTROL; ACE (50 ppm): 76% OF CONTROL; AMO (50 ppm): 268% OF CONTROL; BUT (50 ppm): 63% OF CONTROL; DLAC (50 ppm): 0% OF CONTROL; ETOH (50 ppm): 0% OF CONTROL; GLU (50 ppm): 0% OF CONTROL; IBU (50 ppm): 61% OF CONTROL; IVA (50 ppm): 46% OF CONTROL; LLAC (50 ppm): 0% OF CONTROL; LYS (50 ppm): 114% OF CONTROL; NH--N (50 ppm): 82% OF CONTROL; PRO (50 ppm): 168% OF CONTROL; TOTAL (50 ppm): 89% OF CONTROL; VAL (50 ppm): 60% OF CONTROL

From patent publication US4797280A, “Antibiotics produced by Kibdelosporangium aridum Shearer gen. nov., sp. nov. ATCC 39323” (SmithKline Beckman Corporation, priority 1986, dated 1989)
